Results: PubChem BioAssay AID2060509 (Molecular Pharmacology Branch, DTP, NCI, 2025)

Test system: 485176-168-R4-J1-PDC spheroids with HUVEC/MSC, viability
Assay: Anticancer human tumor 485176-168-R4-J1-PDC patient-derived pancreatic adenocarcinoma cell line growth inhibition [GQUAD]
Details: for IC50: curve of first compound; for viability, T/C: stronger effect = lower value
Procedure, shortened: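 Tumor cells were grown as complex spheroids with HUVEC endothelial cells and mesenchymal stem cells as stroma. G-quadruplex stabilizers were combined with targeted agents over half-log dilutions from near the clinical Cmax, or from 10 microM.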

[1] = second compound 0.0316 µM, first compound 0.0316 µM
[2] = second compound 0.0316 µM, first compound 0.1 µM
[3] = second compound 0.0316 µM, first compound 0.316 µM
[4] = second compound 0.0316 µM, first compound 1 µM
[5] = second compound 0.0316 µM, first compound 3.16 µM
[6] = second compound 0.0316 µM, first compound 10 µM
[7] = second compound 0.1 µM, first compound 0.0316 µM
[8] = second compound 0.1 µM, first compound 0.1 µM
[9] = second compound 0.1 µM, first compound 0.316 µM
[10] = second compound 0.1 µM, first compound 1 µM
[11] = second compound 0.1 µM, first compound 3.16 µM
[12] = second compound 0.1 µM, first compound 10 µM
[13] = second compound 0.316 µM, first compound 0.0316 µM
[14] = second compound 0.316 µM, first compound 0.1 µM
[15] = second compound 0.316 µM, first compound 0.316 µM
[16] = second compound 0.316 µM, first compound 1 µM
[17] = second compound 0.316 µM, first compound 3.16 µM
[18] = second compound 0.316 µM, first compound 10 µM
[19] = second compound 1 µM, first compound 0.0316 µM
[20] = second compound 1 µM, first compound 0.1 µM
[21] = second compound 1 µM, first compound 0.316 µM
[22] = second compound 1 µM, first compound 1 µM
[23] = second compound 1 µM, first compound 3.16 µM
[24] = second compound 1 µM, first compound 10 µM
[25] = second compound 3.16 µM, first compound 0.0316 µM
[26] = second compound 3.16 µM, first compound 0.1 µM
[27] = second compound 3.16 µM, first compound 0.316 µM
[28] = second compound 3.16 µM, first compound 1 µM
[29] = second compound 3.16 µM, first compound 3.16 µM
[30] = second compound 3.16 µM, first compound 10 µM
[31] = second compound 10 µM, first compound 0.0316 µM
[32] = second compound 10 µM, first compound 0.1 µM
[33] = second compound 10 µM, first compound 0.316 µM
[34] = second compound 10 µM, first compound 1 µM
[35] = second compound 10 µM, first compound 3.16 µM
[36] = second compound 10 µM, first compound 10 µM
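Further: spheroids exposed to compounds for seven days before readout.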
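Wherever viability, T/C is given: percent viability relative to DMSO vehicle control wells as 100%.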

## COc1ncnc(C2CC2)c1-c1ncc2cnn(Cc3ccc(-c4nc(C(F)(F)F)cn4C(C)C)cc3)c2n1 + CN(C)c1ccc(Nc2c3ccc(NC(=O)CCN4CCCC4)cc3nc3cc(NC(=O)CCN4CCCC4)ccc23)cc1
Second compound 0.0316 µM
  IC50: > 10000 nM
Second compound 0.1 µM
  IC50: > 10000 nM
Second compound 0.316 µM
  IC50: > 10000 nM
Second compound 1 µM
  IC50: > 10000 nM
Second compound 3.16 µM
  IC50: > 10000 nM
Second compound 10 µM
  IC50: > 10000 nM
[1]
  viability, T/C: 86.9%
[2]
  viability, T/C: 83.5%
[3]
  viability, T/C: 109%
[4]
  viability, T/C: 107%
[5]
  viability, T/C: 97.8%
[6]
  viability, T/C: 94.3%
[7]
  viability, T/C: 123%
[8]
  viability, T/C: 95.2%
[9]
  viability, T/C: 106%
[10]
  viability, T/C: 93.3%
[11]
  viability, T/C: 104%
[12]
  viability, T/C: 89.5%
[13]
  viability, T/C: 96.3%
[14]
  viability, T/C: 95.5%
[15]
  viability, T/C: 103%
[16]
  viability, T/C: 96%
[17]
  viability, T/C: 87.4%
[18]
  viability, T/C: 98%
[19]
  viability, T/C: 88.1%
[20]
  viability, T/C: 97.1%
[21]
  viability, T/C: 105%
[22]
  viability, T/C: 74.3%
[23]
  viability, T/C: 99.9%
[24]
  viability, T/C: 83.3%
[25]
  viability, T/C: 94.3%
[26]
  viability, T/C: 96.8%
[27]
  viability, T/C: 87.9%
[28]
  viability, T/C: 102%
[29]
  viability, T/C: 92.5%
[30]
  viability, T/C: 88.1%
[31]
  viability, T/C: 90.5%
[32]
  viability, T/C: 81.2%
[33]
  viability, T/C: 86.8%
[34]
  viability, T/C: 86.8%
[35]
  viability, T/C: 72.4%
[36]
  viability, T/C: 70.2%

## CC1COCCN1c1cc(-c2ccnn2C)c2ccnc(-c3ccn[nH]3)c2n1 (stereo not drawn) + Cc1cnc(CNC(=O)c2c(=O)c3ccc(N4CCCN(C)CC4)nc3n3c2sc2ccccc23)cn1
Second compound 0.0316 µM
  IC50: < 31.6 nM
Second compound 0.1 µM
  IC50: < 31.6 nM
Second compound 0.316 µM
  IC50: < 31.6 nM
Second compound 1 µM
  IC50: < 31.6 nM
Second compound 3.16 µM
  IC50: < 31.6 nM
Second compound 10 µM
  IC50: < 31.6 nM
[1]
  viability, T/C: 40.6%
[2]
  viability, T/C: 15.9%
[3]
  viability, T/C: 12.9%
[4]
  viability, T/C: 8.3%
[5]
  viability, T/C: 10.7%
[6]
  viability, T/C: 11.9%
[7]
  viability, T/C: 22.2%
[8]
  viability, T/C: 12.2%
[9]
  viability, T/C: 7.9%
[10]
  viability, T/C: 11.2%
[11]
  viability, T/C: 10.8%
[12]
  viability, T/C: 11.7%
[13]
  viability, T/C: 18.2%
[14]
  viability, T/C: 9.35%
[15]
  viability, T/C: 8.47%
[16]
  viability, T/C: 7.9%
[17]
  viability, T/C: 10.6%
[18]
  viability, T/C: 10.4%
[19]
  viability, T/C: 12.6%
[20]
  viability, T/C: 9.48%
[21]
  viability, T/C: 9.86%
[22]
  viability, T/C: 8.6%
[23]
  viability, T/C: 11.5%
[24]
  viability, T/C: 10.6%
[25]
  viability, T/C: 15%
[26]
  viability, T/C: 11.8%
[27]
  viability, T/C: 10.1%
[28]
  viability, T/C: 10.4%
[29]
  viability, T/C: 9.56%
[30]
  viability, T/C: 9.96%
[31]
  viability, T/C: 16%
[32]
  viability, T/C: 11%
[33]
  viability, T/C: 9.84%
[34]
  viability, T/C: 9.05%
[35]
  viability, T/C: 9.12%
[36]
  viability, T/C: 10.4%

## COc1cc(C2c3cc4c(cc3C(OC3OC5COC(C)OC5C(O)C3O)C3COC(=O)C23)OCO4)cc(OC)c1O (stereo not drawn) + CN(C)c1ccc(Nc2c3ccc(NC(=O)CCN4CCCC4)cc3nc3cc(NC(=O)CCN4CCCC4)ccc23)cc1
Second compound 0.0316 µM
  IC50: 340 nM
Second compound 0.1 µM
  IC50: 476 nM
Second compound 0.316 µM
  IC50: 474 nM
Second compound 1 µM
  IC50: 412 nM
Second compound 3.16 µM
  IC50: 333 nM
Second compound 10 µM
  IC50: 303 nM
[1]
  viability, T/C: 87%
[2]
  viability, T/C: 74.7%
[3]
  viability, T/C: 38.9%
[4]
  viability, T/C: 39.6%
[5]
  viability, T/C: 30.1%
[6]
  viability, T/C: 9.84%
[7]
  viability, T/C: 89.6%
[8]
  viability, T/C: 82.8%
[9]
  viability, T/C: 46.4%
[10]
  viability, T/C: 41.2%
[11]
  viability, T/C: 29.2%
[12]
  viability, T/C: 12.1%
[13]
  viability, T/C: 98.8%
[14]
  viability, T/C: 81.5%
[15]
  viability, T/C: 47.5%
[16]
  viability, T/C: 42.2%
[17]
  viability, T/C: 26.3%
[18]
  viability, T/C: 10.1%
[19]
  viability, T/C: 90.6%
[20]
  viability, T/C: 71.6%
[21]
  viability, T/C: 50.6%
[22]
  viability, T/C: 39.1%
[23]
  viability, T/C: 24.6%
[24]
  viability, T/C: 9.92%
[25]
  viability, T/C: 75.5%
[26]
  viability, T/C: 63.7%
[27]
  viability, T/C: 44.5%
[28]
  viability, T/C: 39.5%
[29]
  viability, T/C: 33.6%
[30]
  viability, T/C: 12.8%
[31]
  viability, T/C: 95.5%
[32]
  viability, T/C: 69.8%
[33]
  viability, T/C: 45.3%
[34]
  viability, T/C: 36.9%
[35]
  viability, T/C: 23.4%
[36]
  viability, T/C: 10.2%

## CCc1c2c(nc3ccc(O)cc13)-c1cc3c(c(=O)n1C2)COC(=O)[C@]3(O)CC + Cc1cnc(CNC(=O)c2c(=O)c3ccc(N4CCCN(C)CC4)nc3n3c2sc2ccccc23)cn1
Second compound 0.0316 µM
  IC50: 3.5 nM
Second compound 0.1 µM
  IC50: 1.5 nM
Second compound 0.316 µM
  IC50: 1.67 nM
Second compound 1 µM
  IC50: < 0.999 nM
Second compound 3.16 µM
  IC50: < 0.999 nM
Second compound 10 µM
  IC50: < 0.999 nM
Second compound 0.0316 µM, first compound 0.000999 µM
  viability, T/C: 79.5%
Second compound 0.0316 µM, first compound 0.00316 µM
  viability, T/C: 47.6%
Second compound 0.0316 µM, first compound 0.00999 µM
  viability, T/C: 36%
[1]
  viability, T/C: 19.6%
Second compound 0.0316 µM, first compound 0.0999 µM
  viability, T/C: 12.6%
[3]
  viability, T/C: 4.96%
Second compound 0.1 µM, first compound 0.000999 µM
  viability, T/C: 54.7%
Second compound 0.1 µM, first compound 0.00316 µM
  viability, T/C: 42.7%
Second compound 0.1 µM, first compound 0.00999 µM
  viability, T/C: 26.6%
[7]
  viability, T/C: 21.9%
Second compound 0.1 µM, first compound 0.0999 µM
  viability, T/C: 11.4%
[9]
  viability, T/C: 4.78%
Second compound 0.316 µM, first compound 0.000999 µM
  viability, T/C: 53%
Second compound 0.316 µM, first compound 0.00316 µM
  viability, T/C: 47%
Second compound 0.316 µM, first compound 0.00999 µM
  viability, T/C: 30.9%
[13]
  viability, T/C: 19.5%
Second compound 0.316 µM, first compound 0.0999 µM
  viability, T/C: 10.7%
[15]
  viability, T/C: 5.12%
Second compound 1 µM, first compound 0.000999 µM
  viability, T/C: 40.2%
Second compound 1 µM, first compound 0.00316 µM
  viability, T/C: 38.9%
Second compound 1 µM, first compound 0.00999 µM
  viability, T/C: 33.2%
[19]
  viability, T/C: 20%
Second compound 1 µM, first compound 0.0999 µM
  viability, T/C: 11.9%
[21]
  viability, T/C: 5.51%
Second compound 3.16 µM, first compound 0.000999 µM
  viability, T/C: 42.6%
Second compound 3.16 µM, first compound 0.00316 µM
  viability, T/C: 35%
Second compound 3.16 µM, first compound 0.00999 µM
  viability, T/C: 27.3%
[25]
  viability, T/C: 22.1%
Second compound 3.16 µM, first compound 0.0999 µM
  viability, T/C: 11.1%
[27]
  viability, T/C: 6.82%
Second compound 10 µM, first compound 0.000999 µM
  viability, T/C: 33.8%
Second compound 10 µM, first compound 0.00316 µM
  viability, T/C: 29.4%
Second compound 10 µM, first compound 0.00999 µM
  viability, T/C: 25.1%
[31]
  viability, T/C: 19.9%
Second compound 10 µM, first compound 0.0999 µM
  viability, T/C: 5.56%
[33]
  viability, T/C: 0.25%
